The text below walks through data of patent publication US9226897B2, “Self-assembling nanoparticles for the release of bisphosphonates in the treatment of human cancers” (Istituti Fisioterapici Ospitalieri, priority 2010, dated 2016).

One data set deals with MDA-MB468. The data set can be described thus: MTT proliferation assay, MDA-MB468 breast cancer cells. In kind it is cell-based. The conditions noted are these: Homo sapiens, MDA-MB-468, 72 h, read-out: IC50 (50% inhibitory concentration), growth inhibition. As to the method:
(§1) Human melanoma cells (M14) and doxorubicin resistant cells (M14+) were provided by Prof. G. Arancia form the National Institute of Health of Rome. […] Proliferation of human cancer cell lines was performed in the presence of increasing concentrations of different drugs by MTT assay as previously described by Caraglia et al. (Oncogene 2004).
(§2) It was studied the effect of increasing concentrations of ZOL encapsulated in pre- and post-PLCaP NPs on growth inhibition of different human cancer cell lines, by MTT assay. In Table 2, the IC50 (50% inhibitory concentration) values of ZOL, free or encapsulated in pre- or post-PLCaP NPs, in the different cell lines analysed after 72 h, are reported. […] Moreover, when using ZOL-encapsulating NPs, we found a potentiation factor (PF)>1.0 in all tested cell lines, if compared with the free ZOL. […] In particular, on MCF7, pre-PLCaPZ NPs caused an about 12-fold potentiation of ZOL-induced cytotoxicity, while a lower effect (about 8-fold) was found with post-PLCaP NPs.
Background: Tetrazolium dyes change colour on reduction, which living cells bring about.

The test system of a further data set is DOX. The data set can be described thus: MTT proliferation assay, DOX multiple myeloma cells. The conditions noted are these: Homo sapiens, Multiple myeloma cell, 72 h, read-out: IC50 (50% inhibitory concentration), growth inhibition. In kind it is cell-based. On the procedure:
as §1, §2

Another data set has as its system KMS. As to the kind of experiment: MTT proliferation assay, KMS multiple myeloma cells. The conditions noted are these: Homo sapiens, Multiple myeloma cell, 72 h, read-out: IC50 (50% inhibitory concentration), growth inhibition. In kind it is cell-based. On the procedure: as §1, §2
The subject of a further data set is PC-3 cells. As to the kind of experiment: In vivo antitumoral activity on prostate cancer, PC-3 xenograft in nude mice. Also noted: species or system CD-1 nude (nu/nu) mice. The conditions noted are these: PC-3 tumors in nude mice, 20 μg ZOL i.v. three times a week for three weeks.
The subject of a further data set is RPMI. The data set can be described thus: MTT proliferation assay, RPMI multiple myeloma cells. Format: cell-based. As to conditions: Homo sapiens, Multiple myeloma cell, 72 h, read-out: IC50 (50% inhibitory concentration), growth inhibition. As to the method:
as §1, §2

In a further data set the test system is OPM2. The data set can be described thus: MTT proliferation assay, OPM2 multiple myeloma cells. Format: cell-based. As to conditions: Homo sapiens, OPM-2, 72 h, read-out: IC50 (50% inhibitory concentration), growth inhibition. On the procedure:
as §1, §2

Another data set has as its system H1355. The data set can be described thus: MTT proliferation assay, H1355 lung cancer cells. Format: cell-based. The conditions noted are these: Homo sapiens, NCI-H1355, 72 h, read-out: IC50 (50% inhibitory concentration), growth inhibition. As to the method: as §1, §2
The next data set concerns CG5. As to the kind of experiment: MTT proliferation assay, CG5 breast cancer cells. As to conditions: Homo sapiens, 72 h, read-out: IC50 (50% inhibitory concentration), growth inhibition. In kind it is cell-based. On the procedure:
as §1, §2

The subject of a further data set is KB. The data set can be described thus: MTT proliferation assay, KB head/neck cancer cells. In kind it is cell-based. The conditions noted are these: Homo sapiens, 72 h, read-out: IC50 (50% inhibitory concentration), growth inhibition. On the procedure:
as §1, §2

The conditions of data set [1]: cited from earlier work.
A further data set concerns DU145. As to the kind of experiment: MTT proliferation assay, DU145 prostate cancer cells. Format: cell-based. The conditions noted are these: Homo sapiens, DU-145, 72 h, read-out: IC50 (50% inhibitory concentration), growth inhibition. On the procedure:
as §1, §2

The next data set concerns MIA PaCa. The data set can be described thus: MTT proliferation assay, MIA PaCa pancreas cancer cells. In kind it is cell-based. The conditions noted are these: Homo sapiens, MIA PaCa-2, 72 h, read-out: IC50 (50% inhibitory concentration), growth inhibition. On the procedure:
as §1, §2

The test system of another data set is BX-PC3. The data set can be described thus: MTT proliferation assay, BX-PC3 pancreas cancer cells. Format: cell-based. As to conditions: Homo sapiens, BXPC-3, 72 h, read-out: IC50 (50% inhibitory concentration), growth inhibition. On the procedure: as §1, §2
The next data set deals with Panc. As to the kind of experiment: MTT proliferation assay, Panc pancreas cancer cells. Format: cell-based. The conditions noted are these: Homo sapiens, 72 h, read-out: IC50 (50% inhibitory concentration), growth inhibition. On the procedure:
as §1, §2

In the next data set the test system is MCF7. As to the kind of experiment: MTT proliferation assay, MCF7 breast cancer cells. In kind it is cell-based. The conditions noted are these: Homo sapiens, 72 h, read-out: IC50 (50% inhibitory concentration), growth inhibition. As to the method: as §1, §2
For the next data set, the system named is PC3. As to the kind of experiment: MTT proliferation assay, PC3 prostate cancer cells. Format: cell-based. As to conditions: Homo sapiens, PC-3, 72 h, read-out: IC50 (50% inhibitory concentration), growth inhibition. As to the method: as §1, §2
Setting [2] is: ZOL 4 mg intravenous over 15 min.

Description for PC-3 cells: CD-1 nude (nu/nu) mice, 6-8 weeks old were purchased from Charles River Laboratories (Milano, Italy).
Mice have been acclimated for one week before to be injected with tumor cells. Mice were injected intramuscularly with tumor cells at 3×10^6 cells/mouse in 200 μl of PBS. Six days after, a tumor mass of about 0.3 cm^3 in diameter was evident, mice were randomized in four groups. Six mice/group were treated with ZOL free or NP containing ZOL for 3 consecutive weeks. Tumor mass was calculated three times a week from caliper measurements by using the formula π/6 AB, where A is the major diameter and B is the minor diameter, corresponding to tumor mass (Sommer K. et al. International Journal of Oncology 2001). Toxicity was evaluating by measuring the body weight two times a week. Student's t test was used for statistical comparison of differences.
As control, a group of mice was treated with NP not containing ZOL, to evaluate the potential antitumoral effects. Mice were treated three times a week for three consecutive weeks. Antitumor efficacy of treatments was assessed by the following end-points: a) percent tumor weight inhibition (TWI %), calculated as [1-(mean tumor weight of treated mice/mean tumor weight of controls)]×100; b) tumor growth delay, evaluated as T−C, where T and C are the median times for treated (T) and untreated tumors (C), respectively, to achieve equivalent size.

Consider `O=P(O)(O)C(O)(Cn1ccnc1)P(=O)(O)O` [free ZOL, zoledronic acid], for which the IC50 in the data set with MDA-MB468 turned out to be 28.4 µM; in the data set on DOX, 41.9 µM; in the data set on KMS, 30 µM; in the data set with RPMI, 120 µM; in the data set on OPM2 it was 83 µM; with H1355, 65 µM. Further, the IC50 is 74 µM in the data set on CG5; 22.8 µM in the data set with KB; 25 µM in the data set on DU145; 55 µM in the data set on MIA PaCa; 12.3 µM with BX-PC3; 32 µM in the data set on Panc. The figures for the IC50 in the data set with MCF7 and in the data set on PC3 were 120 µM and 12.5 µM, respectively. Also, the “TWI (%), percent tumor weight inhibition” value in the data set on PC-3 cells (at the nadir of the effect) stood at 17%. Besides, the “T-C (days), tumor growth delay” value with PC-3 cells (median times to equivalent size) worked out at 5 days. Further, the “distribution plasma half-life (t1/2)” value in data set [1] (setting [2]) was 0.25 h. For the same compound, the “elimination plasma half-life (t1/2β)” value in data set [1] (setting [2]) was 1.75 h. In data set [1] (ZOL 4 mg intravenous over 15 min, read-out: maximum plasma concentration (Cmax)), the Cmax is roughly 1000 nM. For the same compound, the “initially administered dose retained in the skeleton” value in [1] (in vivo) was “approximately 55%”.
